Values of other authors as cited in patent publication US20140120162A1, “Bioadhesive Drug Delivery Compositions” (PEROSPHERE INC., priority 2011, published 2014).
Where two headings read alike, the source gives them in different places.

Key:
[1] = not given; remark: listed apart in the source
[2] = not given; remark: listed apart in the source

1-[(4R,5S)-5-[(2-aminoethyl)amino]-N^2-(10,12-dimethyl-1-oxotetradecyl)-4-hydroxy-L-ornithine]-5-[(3IRI)-3-hydroxy-L-ornithine]pneumocandin B0 diacetate (salt) [Caspofungin acetate]
bioavailability (caspofungin): 0%
pH of a saturated aqueous solution [1]: approximately 6.6
solubility in ethanol / alcohol [2]: slightly soluble
solubility in methanol [2]: freely soluble
solubility in water [2]: freely soluble

NC(=O)N1c2ccccc2C=Cc2ccccc21 [Carbamazepine, 5H-dibenz[b,f]azepine-5-carboxamide]
solubility in acetone ([2]; acetone): soluble
solubility in ethanol / alcohol [2]: soluble
solubility in water [2]: practically insoluble

NCC1(CC(=O)O)CCCCC1 [Gabapentin]
bioavailability (gabapentin, at best, 900 mg dose given three times a day): ≤ 60%
metabolism in humans (humans): not appreciably metabolized

CC(=O)O[C@H]1C(=O)[C@@]2(C)[C@H]([C@H](OC(=O)c3ccccc3)[C@]3(O)C[C@H](OC(=O)[C@H](O)[C@@H](NC(=O)c4ccccc4)c4ccccc4)C(C)=C1C3(C)C)[C@]1(OC(C)=O)CO[C@@H]1C[C@@H]2O [Paclitaxel]
solubility in water [2]: insoluble

C#C[C@]1(O)CC[C@H]2[C@@H]3CCC4=Cc5oncc5C[C@]4(C)[C@H]3CC[C@@]21C [Danazol, 17a-Pregna-2,4-dien-20-yno[2,3-d]-isoxazol-17-ol]
half-life (danazol administered orally): 4 to 5 h
time of peak concentrations (danazol administered orally): ≤ 2 h
increase in plasma concentration on doubling the dose (danazol, doubling the dose): 30-40%

C=CC[C@@H]1/C=C(\C)C[C@H](C)C[C@H](OC)[C@H]2O[C@@](O)(C(=O)C(=O)N3CCCC[C@H]3C(=O)O[C@H](/C(C)=C/[C@@H]3CC[C@@H](O)[C@H](OC)C3)[C@H](C)[C@@H](O)CC1=O)[C@H](C)C[C@@H]2OC [Tacrolimus]
absolute bioavailability (tacrolimus, 5 mg dose taken twice a day, oral): approximately 17%
solubility in chloroform ([2]; chloroform): very soluble
solubility in ethanol / alcohol [2]: freely soluble
solubility in methanol [2]: very soluble
solubility in water [2]: practically insoluble
